Measurements published in the NIST ThermoML archive (doi:10.1016/j.jct.2004.09.015).

Details: Liquid, Closed cell (Static) method

CC(=O)N(C)C [N,N-dimethylethanamide]
Details	vapor or sublimation pressure [kPa]
323.15 K	1.158
333.15 K	1.982
343.15 K	3.271
353.15 K	5.193
363.15 K	8
373.15 K	12
383.15 K	17.55
393.15 K	25.03
403.15 K	35.04
413.15 K	48.09
423.15 K	64.73
